The structures appear in SMILES notation. ≈ marks a conversion by molar mass, not a printed value.

For the data set the following is noted: buffer; pH 7.4; 200.0 µM.
The term kinetic solubility denotes solubility judged after dilution from a stock solution rather than from solid. `COc1cc(/C=C/C(=O)Nc2cccnc2)cc(OC)c1OC` came in with a solubility (kinetic) of 40.9 µg/mL (≈ 130 µM).

Turning to `CCOc1ccc(N2CC(C(=O)N3CCCc4ccccc43)CC2=O)cc1` (configuration not stated), the kinetic solubility is 47.2 µg/mL (≈ 130 µM). For `COc1ccc(C(=O)NCCNc2ccc([N+](=O)[O-])cc2)cc1`, the kinetic solubility was 5 µg/mL (≈ 15.9 µM). The value for `CCNC(=O)COC(=O)Cc1ccc(Cl)cc1Cl` was more than 43.5 µg/mL; that for `O=C(NC(=O)c1ccc(Cl)cc1)Nc1ccc(-c2cnco2)cc1` was 2.7 µg/mL (≈ 7.9 µM); that for `CC(C)CC1(C)NC(=O)N(CC(=O)Nc2ccc3c(c2)OCCO3)C1=O` (configuration not stated) was more than 54.2 µg/mL. In turn, `Cn1cccc1C1CCCN1CC(=O)Nc1c(Cl)cc(Cl)cc1Cl` (configuration not stated) yielded a solubility (kinetic) of 32.5 µg/mL (≈ 84 µM).

`Cn1c2ccccc2c2nnc(SCCN3CCOCC3)nc21` showed a kinetic solubility of more than 49.4 µg/mL.

As to `COC(=O)c1ccc(Oc2nc(NC(C)C)nc(NC(C)C)n2)cc1`, the solubility (kinetic) was found to be 1.4 µg/mL (≈ 4.05 µM).

In the case of `Cc1nc([N+](=O)[O-])c(Br)n1Cc1ccccc1`, the kinetic solubility is more than 44.4 µg/mL.

Turning to `COC(=O)c1ccc(NC(=O)c2ccc(OC(C)=O)c(OC)c2)cc1`, the solubility (kinetic) amounted to 3.1 µg/mL (≈ 9.03 µM). Consider `CCOc1ccc(/C=C(\C#N)C(=O)Nc2ccccn2)cc1`, for which the kinetic solubility was 2.7 µg/mL (≈ 9.2 µM). In turn, `CN(Cc1nc(-c2cccs2)no1)CC(O)c1ccccc1` (configuration not stated) returned a kinetic solubility of 42.8 µg/mL (≈ 136 µM). `Cc1c(C(=O)N2CCOCC2)sc(NC(=O)CCl)c1C#N`: the kinetic solubility is more than 49.2 µg/mL.

Turning to `O=C(CCNC(=O)c1ccc(Br)cc1)Nc1ccc(S(=O)(=O)N2CCOCC2)cc1`, the solubility (kinetic) was determined as 5.3 µg/mL (≈ 10.7 µM). The molecule `Cc1cc(=O)n2c(-c3ccc(Cl)cc3)csc2n1` came in with a kinetic solubility of 7.9 µg/mL (≈ 28.5 µM). Molecule `O=c1c2oc3nc4c(cc3c2ncn1CCCc1ccccc1)CCCC4` yielded a kinetic solubility of 1.3 µg/mL (≈ 3.62 µM). In the case of `NC(=O)CSc1nnc(Cc2ccc3c(c2)OCO3)o1`, the kinetic solubility was more than 44 µg/mL.

`O=C(NCCOc1ccccc1)C(=O)c1c[nH]c2ccccc12` came in with a kinetic solubility of 0.9 µg/mL (≈ 2.92 µM).

Regarding `O=C(NC(=S)NC1C2CC3CC(C2)CC1C3)c1ccccc1` (configuration not stated), the kinetic solubility was less than 0.3 µg/mL. In turn, `CCCC(=O)C1=C(N(C)c2ccccc2)CC(C)(C)CC1=O` registered a kinetic solubility of 32.5 µg/mL (≈ 109 µM). Under `Cc1noc(C)c1C(=O)N1CCC(C(=O)c2ccc(F)cc2F)CC1` stands more than 52.3 µg/mL. Under `Cc1nc(N)ncc1Sc1ccccc1` stands 5.2 µg/mL (≈ 23.9 µM); under `COc1ccc(CCNC(=O)/C=C/C(=O)O)cc1`, more than 37.4 µg/mL. On to `Cc1ccc(S(=O)(=O)CCSc2nccn2C)cc1`, for which the solubility (kinetic) was more than 44.5 µg/mL. Consider `O=C(Nc1ccc2c(c1)OCCO2)C1CC(c2ccc(F)cc2)=NO1` (configuration not stated), for which the solubility (kinetic) amounted to 1.2 µg/mL (≈ 3.51 µM).

`CC(N=Cc1c(O)n(C2CC2)c(=S)[nH]c1=O)c1ccccc1` (configuration not stated) returned a kinetic solubility of 2.6 µg/mL (≈ 8.24 µM).

Take `O=C(NCc1ccccc1)c1ccc(Cl)cc1`: the solubility (kinetic) worked out at 3.8 µg/mL (≈ 15.5 µM). As for `CN(c1cccc(NC(=O)c2ccc(C(C)(C)C)cc2)c1)S(C)(=O)=O`, the kinetic solubility was less than 0.4 µg/mL.

Turning to `CC1C=CCC2C(=O)N(c3ccc(OC(=O)c4ccco4)cc3)C(=O)C12` (configuration not stated), the kinetic solubility was found to be 18 µg/mL (≈ 51.2 µM).

`COc1ccc(CCNC(=O)c2ccc(=O)[nH]c2)cc1OC` returned a kinetic solubility of more than 45.3 µg/mL. For the molecule `CN(C)c1cccc(NC(=O)NC2(C)CCS(=O)(=O)C2)c1` (configuration not stated), the kinetic solubility was more than 46.7 µg/mL. Under `O=C(NCCc1ccc(F)cc1)c1ccncc1` stands more than 36.6 µg/mL; under `O=C1NCCCCC1NS(=O)(=O)c1cccc(C(F)(F)F)c1` (configuration not stated), more than 50.4 µg/mL. `CCN(CC)c1ccc(N=CN2CCOCC2)cc1` came in with a kinetic solubility of 35.9 µg/mL (≈ 137 µM). Under `Cc1ccc(C(=O)CCC(=O)Nc2ncccc2C)cc1` stands more than 42.4 µg/mL. The value for `O=[N+]([O-])c1cnc(Nc2ccc(Cl)cn2)c([N+](=O)[O-])c1` was 1.8 µg/mL (≈ 6.09 µM). Under `COc1c2c(nc3occc13)C(CC=C(C)C)(OC)C(=O)C=C2` (configuration not stated) stands more than 47 µg/mL; under `C=CC(=O)Oc1ccc(N2Cc3ccccc3C2=O)cc1`, 2.4 µg/mL (≈ 8.59 µM). In the case of `COC(=O)c1ccc2[nH]c3c(c2c1)CC(C)CC3` (configuration not stated), the kinetic solubility is 0.9 µg/mL (≈ 3.7 µM). Under `COc1ccccc1C(=O)N(C1=NC(C)CS1)c1ccc(Cl)cc1` (configuration not stated) stands 8.1 µg/mL (≈ 22.4 µM); under `CC(Sc1nncn1C)C(=O)Nc1ccc2ccccc2c1` (configuration not stated), more than 46.9 µg/mL. `Cc1nc2ccccc2c(=O)n1NC(=O)c1ccccc1F` displayed a solubility (kinetic) of more than 44.6 µg/mL. The molecule `CC(C)(C)c1ccc(OCc2cnc(Cl)s2)cc1` displayed a kinetic solubility of less than 0.6 µg/mL. Turning to `O=C(Nc1cc(Cl)cc(Cl)c1)c1ccno1`, the kinetic solubility turned out to be 8.4 µg/mL (≈ 32.7 µM).

`C[N+]1(C)CCc2cc3c(cc2[C@H]1[C@@H]1OC(=O)c2c1ccc1c2OCO1)OCO3.[I-]` gave a solubility (kinetic) of more than 76.4 µg/mL. For the molecule `COc1ccccc1Nc1nc(NCc2ccco2)c2ccccc2n1.Cl`, the solubility (kinetic) came to 0.4 µg/mL. As to `COC(=O)c1ccc(C(=S)NCC2(N(C)C)CCCCC2)cc1`, the kinetic solubility was determined as 45.6 µg/mL (≈ 136 µM). Molecule `CC(=O)OC(C(=O)Nc1nccs1)c1ccccc1` (configuration not stated) gave a kinetic solubility of more than 41.4 µg/mL. For `NS(=O)(=O)c1ccc(Sc2ccc3ccccc3c2)nc1`, the solubility (kinetic) turned out to be 2.1 µg/mL (≈ 6.64 µM). Turning to `CC1CCCCC1N=C1NC(C)(C)CS1` (configuration not stated), the solubility (kinetic) is more than 34 µg/mL. Under `O=C1CN=C(c2ccccc2)c2cc([N+](=O)[O-])ccc2N1` stands more than 42.2 µg/mL.

Source of the values: PubChem BioAssay AID1996.
